Values of other authors as cited in patent US20180153800A1, “PERSONAL LUBRICANT PROVIDING SEQUENTIAL MULTISENSORIAL PERCEPTIONS AND ARTICLES INCORPORATING SUCH LUBRICANT” (Church & Dwight Co., Inc., priority 2016, published 2018).

Tested on: human tissue

SMILES | time of onset of cooling sensation (after tissue contact) | sensation duration (cooling sensation) | cooling sensation relative to menthol (reference menthol) [times]
CC1CCC(C(C)C)C(OC(=O)CCC(=O)N(C)C)C1 (stereo not drawn) [2-isopropyl-5-methylcyclohexyl 4-(dimethylamino)-4-oxobutanoate] | about 25 seconds | about 11.25 minutes | –
CC1CCC(C(C)C)C(C(=O)Nc2ccc(CC#N)cc2)C1 (stereo not drawn) [N-(4-cyanomethylphenyl) p-menthanecarboxamide] | – | – | 10
